According to patent publication US8912329B2 (priority 2009, dated 2014):

Target: EthR-VP16 (Mycobacterium bovis, UniProt Q7TVI1)
Experiment: cell-based
Set-up: species or system M. bovis
Conditions: 48 h, read-out: % EthR activity (w/o = 100%); ± std. dev. of the mean (n = 3)

Chain of EthR-VP16 (Q7TVI1 whole entry, looked up): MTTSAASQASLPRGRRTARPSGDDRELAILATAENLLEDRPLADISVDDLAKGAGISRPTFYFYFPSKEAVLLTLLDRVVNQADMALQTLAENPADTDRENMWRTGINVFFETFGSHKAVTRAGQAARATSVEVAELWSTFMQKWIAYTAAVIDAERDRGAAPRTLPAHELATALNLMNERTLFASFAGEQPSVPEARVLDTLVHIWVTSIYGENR

| SMILES | remaining activity at 0.5 µM [%] | remaining activity at 1.5 µM [%] | remaining activity at 3 µM [%] | remaining activity at 6 µM [%] | remaining activity at 15 µM [%] | remaining activity at 30 µM [%] | remaining activity at 60 µM [%] | remaining activity at 300 µM [%] |
| --- | --- | --- | --- | --- | --- | --- | --- | --- |
| CCCC(=O)N1CCN(Cc2ccccc2)CC1 [Example 1, 1-(4-Benzylpiperazin-1-yl)butan-1-one] | 72.5 ± 1.65 | 76.5 ± 17.5 | 68.7 ± 2.79 | 73.2 ± 1.19 | 72.6 ± 6.82 | 64.1 ± 14 | 53.1 ± 7.78 | 27.3 ± 5.27 |
| CCCC(=O)N1CCOC(c2ccccc2)C1 (stereo not drawn) [Example 3, 1-(2-Phenylmorpholino)butan-1-one] | 85.5 ± 2.57 | 96.82 ± 0.67 | 84.4 ± 6.37 | 90.1 ± 6.44 | 98.4 ± 4.51 | 86.5 ± 4.1 | 81.9 ± 8.6 | 40.2 ± 4.65 |
| CCCC(=O)N1CCC(c2ccccc2)C1 (stereo not drawn) [Example 13, 1-(3-Phenylpyrrolidin-1-yl)butan-1-one] | 30.4 ± 3.98 | 17.7 ± 2.01 | 11 ± 2.88 | 10.9 ± 1.45 | 12.4 ± 0.99 | 14.5 ± 7.8 | 10.8 ± 1.34 | 12 ± 1.27 |
| O=C(Cc1cccs1)N1CCOC(c2ccccc2)C1 (stereo not drawn) [Example 14, 1-(2-Phenylmorpholin-4-yl)-2-(thiophen-2-yl)ethan-1-one] | 106 ± 19.8 | 86.2 ± 1.36 | 85.9 ± 6.26 | 74.8 ± 1.22 | 60.5 ± 1.32 | 35.4 ± 5.3 | 25.5 ± 3.82 | 9.16 ± 1.37 |
| O=C(CCc1ccco1)N1CCN(Cc2ccccc2)CC1 [Example 18, 1-(4-Benzylpiperazin-1-yl)-3-(furan-2-yl)propan-1-one] | 91.9 ± 3.57 | 80.7 ± 8.89 | 81.4 ± 15.9 | 59.3 ± 1.2 | 44.2 ± 2.35 | 11.2 ± 1.68 | 12.4 ± 1.85 | 1.74 ± 0.26 |
| CC(C)CC(=O)N1CCOC(c2ccccc2)C1 (stereo not drawn) [Example 19, 3-Methyl-1-(2-phenylmorpholin-4-yl)butan-1-one] | 95.6 ± 9.07 | 102 ± 4.13 | 95.9 ± 9.02 | 96.4 ± 13.5 | 76 ± 6.56 | 35.2 ± 5.28 | 33.5 ± 5.96 | 27.6 ± 0.37 |
| CC(C)(C)CC(=O)N1CCOC(c2ccccc2)C1 (stereo not drawn) [Example 20, 3,3-Dimethyl-1-(2-phenylmorpholin-4-yl)butan-1-one] | 96.6 ± 11.1 | 90.9 ± 14 | 88.2 ± 8.63 | 89 ± 4.56 | 75.5 ± 6.63 | 43.7 ± 3.21 | 33 ± 6.41 | 35.5 ± 1.37 |
| O=C(CCc1ccccc1)N1CCOC(c2ccccc2)C1 (stereo not drawn) [Example 21, 3-Phenyl-1-(2-phenylmorpholin-4-yl)propan-1-one] | 108 ± 7.36 | 98.5 ± 16.4 | 73.5 ± 7.58 | 60.2 ± 8.98 | 40.8 ± 4.81 | 8.33 ± 5.61 | 6.29 ± 1.05 | 1.34 ± 1.58 |
| O=C(CCc1ccccc1)N1CCC1c1ccccc1 (stereo not drawn) [Example 22, 3-Phenyl-1-(2-phenylazetidin-1-yl)propan-1-one] | 90 ± 15.2 | 106 ± 10 | 97.4 ± 5.01 | 90.2 ± 8.48 | 77.8 ± 4.33 | 59.4 ± 4.5 | 33.2 ± 2.46 | 6.34 ± 0.89 |
| O=C(CCCc1ccccc1)N1CCC1c1ccccc1 (stereo not drawn) [Example 23, 4-Phenyl-1-(2-phenylazetidin-1-yl)butan-1-one] | 96.3 ± 10 | 102 ± 12.3 | 101 ± 9.55 | 90.1 ± 9.21 | 86.8 ± 5.76 | 81.5 ± 5.22 | 49.4 ± 1.49 | 6.18 ± 2.53 |
| O=C(CCc1ccccc1)N1CC(Cc2ccccc2)C1 [Example 25, 1-(3-Benzylazetidin-1-yl)-3-phenylpropan-1-one] | 86.8 ± 9.98 | 88.5 ± 8.12 | 69.5 ± 4.27 | 48 ± 5.86 | 28.7 ± 3.22 | 19.5 ± 0.89 | 14.2 ± 3.23 | 6.03 ± 2 |
| O=C(CCCc1ccccc1)N1CC(Cc2ccccc2)C1 [Example 27, 1-(3-Benzylazetidin-1-yl)-4-phenylbutan-1-on] | 59.6 ± 2.49 | 42.6 ± 1.49 | 37.9 ± 5.47 | 31.3 ± 3.58 | 31.7 ± 1.36 | 26.3 ± 9.65 | 17.5 ± 4.51 | 15.3 ± 2.79 |
| CCCCC(=O)N1CCN(Cc2ccccc2)CC1 [Example 28, 1-(4-Benzylpiperazin-1-yl)pentan-1-one] | 97.1 ± 9.36 | 81.5 ± 3.01 | 59.4 ± 4.9 | 46.2 ± 2.55 | 38.3 ± 2.21 | 18.5 ± 3.64 | 11.7 ± 2.77 | 10.2 ± 1.94 |
| CCCCCC(=O)N1CCN(Cc2ccccc2)CC1 [Example 29, 1-(4-Benzylpiperazin-1-yl)hexan-1-one] | 85.4 ± 9.96 | 56 ± 5.54 | 36.5 ± 3.17 | 26.5 ± 0.73 | 16.9 ± 0.73 | 16.7 ± 3.59 | 10 ± 2.93 | 12.9 ± 4.6 |
| CCCCC(=O)N1CCOC(c2ccccc2)C1 (stereo not drawn) [Example 30, 1-(2-Phenylmorpholin-4-yl)pentan-1-one] | 112 ± 16.1 | 111 ± 17.1 | 101 ± 5.87 | 90.5 ± 5.55 | 69.2 ± 8.71 | 43.3 ± 2.01 | 26.9 ± 2.34 | 14.9 ± 3 |
| CCCCCC(=O)N1CCOC(c2ccccc2)C1 (stereo not drawn) [Example 31, 1-(2-Phenylmorpholin-4-yl)hexan-1-one] | 106 ± 17.5 | 103 ± 16.4 | 94.1 ± 15.9 | 63.7 ± 5.26 | 33.2 ± 1.27 | 25 ± 4.22 | 17.8 ± 4.01 | 15 ± 2.11 |
| CCCCC(=O)N1CCC(c2ccccc2)C1 (stereo not drawn) [Example 32, 1-(3-Phenylpyrrolidin-1-yl)pentan-1-one] | 12.5 ± 5.97 | 10.7 ± 2.55 | 10.4 ± 2.69 | 9.96 ± 3.44 | 5.65 ± 1.1 | 8.77 ± 1.57 | 8.89 ± 1.74 | 1.56 ± 0.8 |
| CCCCCC(=O)N1CCC(c2ccccc2)C1 (stereo not drawn) [Example 33, 1-(3-Phenylpyrrolidin-1-yl)hexan-1-one] | 11.4 ± 3.47 | 14.9 ± 5.68 | 5.8 ± 2.33 | 3.83 ± 1.01 | 4.58 ± 1.34 | 5.01 ± 0.8 | 5.24 ± 2.58 | 2.78 ± 1.33 |
